Assay results from patent publication US4076702A, “Dipeptide derivatives and their production” (Shionogi & Co., Ltd., priority 1974, dated 1978).

Legend:
DS male mice [1] = conditions: oral single dose, observed 72 hours, Bliss method
Method: The test compound was orally administered to DS male mice in different single doses. For each dose, 10 mice were used, their weight ranging from 20 to 23 grams. […] The mortality was calculated by the Bliss method [Bliss: Ann.

DS male mice [2] = test: Rotarod performance activity; format: in vivo; conditions: fall from rod within less than 2 minutes counted as effective, 10 mice per dose; for ED50: Mus musculus
Method: (3) Rotarod performance activity
This test was measured on DS male mice. The mouse was put on a scraped rod of wood, 3 cm in diameter, turning at the rate of five rotations per minute. The mice that could remain on the rod for three or more minutes in successive trials were selected and placed in a group of 10 mice for each dose. If the mouse fell down from the rod within less than 2 minutes, the test compound was considered to be effective. Results were shown by ED50 [Dunham, et al.: J. Am. Pharm. Assoc., 46, 208 (1957)].

DS male mice [3] = test: Taming activity (inhibition of electroshock-induced fighting response); format: in vivo; conditions: compound given 60 minutes prior, 5 pairs per group; for ED50: Mus musculus
Method: This test was measured on DS male mice. […] These pairs of mice were selected in the morning and used for drug test in the afternoon. The test compound was administered to both mice of the pairs 60 minutes prior to the experiment. Results were obtained as the mean percentage of inhibition of fighting response in a group of 5 pairs and shown by ED50 [Tedeschi, et al.: J. Pharmacol Exp. Thev., 125, 28-34 (1959)].

DS male mice [4] = test: Anti-pentylenetetrazol activity; format: in vivo; conditions: test compound orally 60 minutes prior to 125 mg/kg s.c. pentylenetetrazol, complete protection against mortality, observed two hours; for ED50: Mus musculus
Description: (1) Anti-pentylenetetrazol activity:
The convulsions were disregarded.

| Compound | Acute toxicity LD50 (DS male mice [1]) | Rotarod performance ED50 (DS male mice [2]) | Taming activity ED50 (DS male mice [3]) | Anti-pentylenetetrazol activity, ED50 (DS male mice [4]) | ED50 (DS male mice [2]) | ED50 (DS male mice [3]) | ED50 (DS male mice [4]) |
| --- | --- | --- | --- | --- | --- | --- | --- |
| CN(C(=O)CNC(=O)CN)c1ccc(Cl)cc1C(=O)c1ccccc1 [Compound No. 1, 2-benzoyl-4-chloro-N-methyl-N^α -glycyl-glycinanilide] | 1309 mg/kg | 36.6 mg/kg | 10.5 mg/kg | 1.0 mg/kg |  |  |  |
| CN(C(=O)CNC(=O)CN)c1ccc(Cl)cc1C(=O)c1ccccc1Cl.O [Compound No. 2, 2-o-chlorobenzoyl-4-chloro-N-methyl-N^α -glycyl-glycinanilide hydrate] | 1255 mg/kg | 27.7 mg/kg | 3.0 mg/kg | 0.58 mg/kg |  |  |  |
| CN(C(=O)CNC(=O)CN)c1ccc(Cl)cc1C(=O)c1ccccc1F.Cl [Compound No. 3, 2-o-fluorobenzoyl-4-chloro-N-methyl-N^α -glycyl-glycinanilide hydrochloride] | > 1000 mg/kg | 17.0 mg/kg | 1.6 mg/kg | 0.33 mg/kg |  |  |  |
| CNC1=Nc2ccc(Cl)cc2C(c2ccccc2)=[N+]([O-])C1 [Compound No. 4, Chlordiazepoxide, reference compound] | 1090 mg/kg |  |  |  | 50 mg/kg | 24 mg/kg | 3.7 mg/kg |
| CN1C(=O)CN=C(c2ccccc2)c2cc(Cl)ccc21 [Compound No. 5, Diazepam, reference compound] |  |  |  |  | 9.03 mg/kg | 6 mg/kg | 1.19 mg/kg |
